# Patent publication US7943140B2, “Compositions and methods for the treatment and prophylaxis of multiple strains and subtypes of HIV-1” (priority 2006, dated 2011)
# Marks after values point to notes of the source that are not given here.
# Columns and labels:
# [1] = test system: HIV-1 Tat (rTat, AA 1-72 variants); assay: Anti-Tat serum antibody titer (ELISA on rTat) after immunization of mice; type: in vivo, mouse; settings: for Titer, GMT: mice, 1.0 mg/mouse IP; for 4 week anti-Tat titer GMT: Mouse
# Procedure: (§1) Immunogens prepared as described in Example 1 were taken up in buffered saline and injected IP in mice and rats, and SC in rabbits. Unless otherwise stated mice were immunized IP with 1 mg of Immunogen at Day 0 and Week 2 and serums were obtained at Week 4 for titration. Other regimens and species were as noted in the figures.
# (§2) Serums were assayed to determine anti-Tat titers by conventional ELISA methods. Briefly, Maxisorp Immuno plates were coated with 2 ng/well rTat and incubated at 22° C. for 1 hour or 4° C. overnight. After thorough washing with 0.1% triton X 100 buffer, blocking with 1% bovine serum albumin (BSA) and rewashing, serum dilutions were applied and incubated at 22° C. for 1 hour. After incubation, the plates were thoroughly washed with triton-X 100 buffer again and 1/10,000 goat anti-mouse IgG-horseradish peroxidase (HRP) conjugate (or the appropriate reagent for rat or rabbit) was applied. The plates were then incubated for 1 hour at 22° C. then washed thoroughly and developed with ABTS for 45 minutes at room temperature on a shaker table. Absorbance was measured at 405 nm. Control wells lacking serum were measured and the titration endpoint was the reciprocal of the […] dilution with an OD greater than mean+8 SDs.
# (§3) Animals were purchased from Harlan Laboratories and acclimated at Molecular Diagnostic Services, Inc., for at least one week before immunization. Both BALBc and C57BL6/BALBc F1 mice were used. Lewis rats were used as indicated. Immunogens prepared as described in Example 1 were taken up in buffered saline and injected IP in mice and rats, and administered subcutaneously in Cynomolgous macaque. Animals were immunized with immunogen at Day 0 and Week 2 (day 14) and serums were obtained at Week 4 (day 28) for titration. Doses/animal are noted in Table 4, along with their anti-Tat titers.
# Animals were purchased from Harlan Laboratories and acclimated at Molecular Diagnostic Services, Inc., for at least one week before immunization. Both BALBc and C57BL6/BALBc F1 mice were used. Pam2C-capped immunogens prepared as described in Example 1 were taken up in buffered saline and injected IP. Mice were immunized with 3 injections of 1.0 mg/mouse Pam2C-capped immunogen with titrations before first boost and 2 weeks after each boost according to Table 5.
# [2] = test system: full length recombinant Tat; assay: Tat depletion assay (rat immune serum on Protein A beads, sandwich ELISA); type: binding, HIV-1; settings: said to be associated with the week 5 titers at all doses (0.1, 1, 10 mg)
# Procedure: Classical techniques to measure Tat depletion could not be used due to the lack of a membrane that retained antibody but permitted rTat diffusion. Briefly, this assay employs beads coated with antibody which are exposed to rTat and incubated. The antibody binds the Tat, depending upon the amount of Tat in solution. This assay thus measures how well the antibodies in the serum deplete the quantity of full length recombinant Tat.
# Control: Normal rat serum not-immunized with HIV-1 Tat B cell epitopes (10% or 1%) was bound to Protein A beads and washed.
# Samples: IgG of 10% and 1% serum of the immunized rat were bound to Protein A beads and washed. Undiluted serum has an anti-Tat titer of 1,000,000, as determined according to the method described in Example 3.
# Both the Protein A beads of control and of samples were then incubated at room temperature for 30 minutes with a rTat solution. After centrifugation, the levels of Tat in supernatant were measured with a sandwich ELISA. The free Tat after exposure to 10% or 1% immune serum protein A coated beads was expressed as a percentage of the free Tat after exposure to 10% or 1% normal […] serum protein A coated beads, respectively.
# [3] = test system: HIV-1 Tat (rTat, AA 1-72 variants); assay: Anti-Tat serum antibody titer (ELISA on rTat) after immunization of rats; type: in vivo, rat; settings: for GMT: rats, week 5, against rTat REK, FIG. 11; for 4 week anti-Tat titer GMT: Rat
# Procedure: as §1, §2, §3
# Three rats per group were immunized with a different dosage per group of a mixture of all of the experimental immunogens encompassed by the formula Pam3[…] -S-V-D-P-(R/K/N/S)-L-(E/D)-P-W-(K/N)-H-P-G-S-amide (SEQ ID NO: 63); Tat amino acid residue 7, 9, and 12 “wobbles”) with a polar charged sequence flanked by the linkers of the Pam3C (i.e., -S-K-K-K-K-S-). This immunogen is referred to as “TUTI-K4”. Each rat was administered a dose of either 0.1 mg TUTI-K4, or 1 mg TUTI-K4 or 10 mgs TUTI-K4 at day 0. Each rat was boosted with the same dose at week 3. The serum antibody titers for each rat were measured against the full length recombinant Tat (AA 1-72) REK variant protein.
# [4] = Toxicity of immunogen dose in mice; type: in vivo; settings: Mouse; 10.0 mg/animal (400 mg/kg)
# Description: as §3
# HIV-1 Tat (rTat) = assay: Anti-Tat serum antibody titer (ELISA on rTat) after immunization of Cynomolgous macaque; type: in vivo; settings: 10.0 mg/animal subcutaneously at Day 0 and Week 2
# Procedure: as §2
# as §3, with “Animals were immunized with immunogen at Day 0 and Week 2 (day 14) and serums were obtained at Week 4 (day 28) for titration. Doses/animal are noted in Table 4, along with their anti-Tat titers.” left out
# [5] = 1.0 mg/animal IP at Day 0 and Week 2
substance,measurement,setting,value
Pam2C-SSQYIKANSKFIGITELSVDP-(R/K/N/S)-L-(E/D)-P-W-(K/N)-H-P-G-S-amide [Pam2-QYIK-TEP1],"Titer, GMT","[1]; prime boost D0, W2, W4, bleed week 2","140,000"
same,"Titer, GMT","[1]; prime boost D0, W2, W4, bleed week 4","950,000"
same,"Titer, GMT","[1]; prime boost D0, W2, W4, bleed week 6","750,000"
same,"Titer, GMT","[1]; prime boost D0, W3, W6, bleed week 3","160,000"
same,"Titer, GMT","[1]; prime boost D0, W3, W6, bleed week 5","930,000"
same,"Titer, GMT","[1]; prime boost D0, W3, W6, bleed week 8","3,300,000"
same,"Titer, GMT","[1]; prime boost D0, W4, W8, bleed week 4","70,000"
same,"Titer, GMT","[1]; prime boost D0, W4, W8, bleed week 6","400,000"
same,"Titer, GMT","[1]; prime boost D0, W4, W8, bleed week 10","3,000,000"
Pam3C-SKKKKSQYIKANSKFIGITEL -S-V-D-P-(R/K/N/S)-L-(E/D)-P-W-(K/N)-H-P-G-S-amide [TUTI-K4],reduction of free Tat levels,[2],greater than 99%
same,GMT,[3]; 0.1 mg at day 0 and week 3,"about 500,000"
same,GMT,[3]; 1 mg at day 0 and week 3,"about 1,000,000"
same,GMT,[3]; 10 mg at day 0 and week 3,"about 1,000,000"
Pam3C-SSQYIKANSKFIGITELSVDP-(R/K/N/S)-L-(E/D)-P-W-(K/N)-H-P-G-S-amide [Pam3-QYIK-TEP1],toxicity,[4],Lethal**
same,4 week anti-Tat titer GMT,[1]; [5],"120,000*"
same,4 week anti-Tat titer GMT,[1]; 3.0 mg/animal IP at Day 0 and Week 2,"220,000"
same,geometric mean antibody titers in serum,"[1]; single mouse, on all eight rTat (AA 1-72) immunodominant epitope variants, FIG. 2","> 100,000"
same,4 week anti-Tat titer GMT,HIV-1 Tat (rTat),"900,000"
same,4 week anti-Tat titer GMT,[3]; [5],"170,000"
same,4 week anti-Tat titer GMT,[3]; 10.0 mg/animal IP at Day 0 and Week 2,"460,000"
same,antibody titers (GMT) in serum,"[3]; single rat, prime day 0, boosts at 3 and 6 weeks, bleed at 8 weeks, on all eight rTat (AA1-72) variants, FIG. 9","> 1,000,000"
